Earlier results as cited in US7988998B2, “Sustained-release tramadol formulations with 24-hour efficacy” (Labopharm Inc., priority 2002, dated 2011).
Where a name gives a salt, the structure may show the parent alone.

Conditions: patients receiving tramadol HCl

SMILES: COc1cccc(C2(O)CCCCC2CN(C)C)c1 (stereo not shown) [tramadol HCl, Tramadol hydrochloride]
- estimated incidence of seizures: less than 1%
